Assay results as given in ChEMBL document CHEMBL1201862, “PubChem BioAssay data set” (2004).
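Cultured in 96-well plates, cells were exposed to test compound for 48 hours across five concentrations. Abbreviation: GI50, concentration required for 50% inhibition of growth.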 The source made the active and inactive calls. Rule as the data show it: active = GI50 up to about 1.1 µM and inactive = higher.

Legend:
Experiment in all cases: inhibition of tumour cell growth, NCI panel, 48 h
XF498 = tested on: XF498
NCI-H522 = tested on: NCI-H522
SF-268 = tested on: SF-268
CCRF-CEM = tested on: CCRF-CEM
HOP-92 = tested on: HOP-92
SN12C = tested on: SN12C
NCI-H23 = tested on: NCI-H23
A549 = tested on: A549
HCT-116 = tested on: HCT-116
SR = tested on: SR
NCI-H460 = tested on: NCI-H460
SK-MEL-28 = tested on: SK-MEL-28
HT-29 = tested on: HT-29
COLO 205 = tested on: COLO 205
ACHN = tested on: ACHN
SNB-19 = tested on: SNB-19
CAKI-1 = tested on: CAKI-1
OVCAR-3 = tested on: OVCAR-3
HL-60 = tested on: HL-60
HCC 2998 = tested on: HCC 2998
SK-OV-3 = tested on: SK-OV-3
U-251 = tested on: U-251
M14 = tested on: M14
786-0 = tested on: 786-0
EKVX = tested on: EKVX
DMS-273 = tested on: DMS-273
SF-295 = tested on: SF-295
UACC-62 = tested on: UACC-62
KM12 = tested on: KM12
M19-MEL = tested on: M19-MEL
SK-MEL-2 = tested on: SK-MEL-2
OVCAR-8 = tested on: OVCAR-8
KM-20L2 = tested on: KM-20L2
OVCAR-4 = tested on: OVCAR-4
Malme-3M = tested on: Malme-3M
DMS-114 = tested on: DMS-114
SF-539 = tested on: SF-539
SW-620 = tested on: SW-620
RXF 393 = tested on: RXF 393
HOP-18 = tested on: HOP-18
TK-10 = tested on: TK-10
HCT-15 = tested on: HCT-15
SNB-78 = tested on: SNB-78
K562 = tested on: K562
SK-MEL-5 = tested on: SK-MEL-5
A498 = tested on: A498
OVCAR-5 = tested on: OVCAR-5
HOP-62 = tested on: HOP-62
LXFL 529 = tested on: LXFL 529
IGROV-1 = tested on: IGROV-1
DLD-1 = tested on: DLD-1
MOLT-4 = tested on: MOLT-4
NCI-H226 = tested on: NCI-H226
LOX IMVI = tested on: LOX IMVI
SNB-75 = tested on: SNB-75
UO-31 = tested on: UO-31
UACC-257 = tested on: UACC-257

Structure (SMILES): Cc1c(Cl)cccc1NC(=O)C(=O)c1c(O)c2ccc(O)cc2oc1=O
- GI50 (XF498): > 100 µM (inactive)
- GI50 (NCI-H522): > 100 µM (inactive)
- GI50 (SF-268): > 100 µM (inactive)
- GI50 (CCRF-CEM): > 100 µM (inactive)
- GI50 (HOP-92): > 100 µM (inactive)
- GI50 (SN12C): > 100 µM (inactive)
- GI50 (NCI-H23): > 100 µM (inactive)
- GI50 (A549): > 100 µM (inactive)
- GI50 (HCT-116): > 100 µM (inactive)
- GI50 (SR): > 100 µM (inactive)
- GI50 (NCI-H460): > 100 µM (inactive)
- GI50 (SK-MEL-28): > 100 µM (inactive)
- GI50 (HT-29): > 100 µM (inactive)
- GI50 (COLO 205): > 100 µM (inactive)
- GI50 (ACHN): > 100 µM (inactive)
- GI50 (SNB-19): > 100 µM (inactive)
- GI50 (CAKI-1): > 100 µM (inactive)
- GI50 (OVCAR-3): > 100 µM (inactive)
- GI50 (HL-60): > 100 µM (inactive)
- GI50 (HCC 2998): > 100 µM (inactive)
- GI50 (SK-OV-3): > 100 µM (inactive)
- GI50 (U-251): > 100 µM (inactive)
- GI50 (M14): > 100 µM (inactive)
- GI50 (786-0): > 100 µM (inactive)
- GI50 (EKVX): > 100 µM (inactive)
- GI50 (DMS-273): > 100 µM (inactive)
- GI50 (SF-295): > 100 µM (inactive)
- GI50 (UACC-62): > 100 µM (inactive)
- GI50 (KM12): > 100 µM (inactive)
- GI50 (M19-MEL): > 100 µM (inactive)
- GI50 (SK-MEL-2): > 100 µM (inactive)
- GI50 (OVCAR-8): > 100 µM (inactive)
- GI50 (KM-20L2): > 100 µM (inactive)
- GI50 (OVCAR-4): > 100 µM (inactive)
- GI50 (Malme-3M): > 100 µM (inactive)
- GI50 (DMS-114): > 100 µM (inactive)
- GI50 (SF-539): > 100 µM (inactive)
- GI50 (SW-620): > 100 µM (inactive)
- GI50 (RXF 393): > 100 µM (inactive)
- GI50 (HOP-18): > 100 µM (inactive)
- GI50 (TK-10): > 100 µM (inactive)
- GI50 (HCT-15): > 100 µM
- GI50 (SNB-78): > 100 µM (inactive)
- GI50 (K562): > 100 µM (inactive)
- GI50 (SK-MEL-5): > 100 µM (inactive)
- GI50 (A498): > 100 µM (inactive)
- GI50 (OVCAR-5): > 100 µM (inactive)
- GI50 (HOP-62): > 100 µM (inactive)
- GI50 (LXFL 529): > 100 µM (inactive)
- GI50 (IGROV-1): > 100 µM (inactive)
- GI50 (DLD-1): > 100 µM (inactive)
- GI50 (MOLT-4): > 100 µM (inactive)
- GI50 (NCI-H226): > 100 µM (inactive)
- GI50 (LOX IMVI): > 100 µM (inactive)
- GI50 (SNB-75): > 100 µM (inactive)
- GI50 (UO-31): > 100 µM (inactive)
- GI50 (UACC-257): > 100 µM (inactive)
